# In a melting point compilation (Tetko et al.; mined from patent text by program, amines drawn as free bases though some values may be those of a salt):
row,melting point [°C],Structure (SMILES)
1,189,Clc1ccc2c(c1)N(c1ncnc3cc(Cl)ccc13)CC2
2,140 to 142,CCS(=O)(=O)Nc1cc(-c2ncnc(C(F)F)c2Cl)c(Cl)cc1Cl
3,108 to 110,CCOC(=O)Cc1ccc(CCC(NC(=O)OC)C(=O)O)cc1 (centres undefined)
4,62 to 64,CC(=O)OCCc1ccc2c(c1)Cc1ccccc1O2
5,188 to 190,COc1cc(OC)nc(NC(=O)NS(=O)(=O)c2c([Si](C)(C)C)ccc3c2S(=O)(=O)C(C)C3)n1 (centres undefined)
6,77 to 78,CC(C)(C)CNC(=O)Oc1ccccc1
7,176 to 178,Brc1cnc2c(c1)ncn2-c1cccc(CN2CCOCC2)c1
8,113,CCCCN1CCC(CNC(=O)c2ccc(N)n3cc(Cl)nc23)CC1
9,188,CCOc1cc(Cc2cnc(N)nc2N)cc2c1OC(C)(C)C=C2CC(C)C
10,115 to 116,CCN1c2ccccc2N(C(=O)CN(C)C)c2ccccc2S1(=O)=O
11,138 to 140,CC12C=CC(O)CC1=CCC1C2CCC2(C)C1CCC21OCCO1 (centres undefined)
12,89 to 90,CC(C)Oc1ccc(NC(=S)NCc2ccoc2)cc1
13,114 to 116,CCCOc1ccc(F)cc1C(N)=O
14,247 to 248,O=C(O)c1cn(-c2ccc(F)cc2)c2cc(N3CCC(N=Cc4ccc([N+](=O)[O-])cc4)C3)c(F)cc2c1=O (centres undefined)
15,104 to 106,CCCCCCCCCCCCCCOc1cccc(CC(=O)Nc2cccc(CBr)c2)c1
16,63 to 63.5,COc1cccc2c1CCC(O)(C(C)=O)C2 (centres undefined)
17,145 to 146,COc1ccc2[nH]c(S(=O)Cc3ncc(C)c(N4CCCC4)c3Cl)nc2c1 (centres undefined)
18,142,OC1CCCC2C3CCCCCCC3C12 (centres undefined)
19,138 to 140,CCC1(CC)c2cc(I)ccc2-c2ccc(C=O)cc21
20,194 to 196,COc1cc(-c2csc(Br)c2Br)cc2oc(=O)c(C)c(C)c12
21,83,COC(=O)CNc1cccc(I)c1
22,93 to 94,COC(=O)c1cccc(COc2cccc(OCc3ccc4ccccc4n3)c2)c1
23,86,NCC1COc2cc(F)cc(-c3ccccc3Cl)c2N1 (centres undefined)
24,220 to 221,CCOC(=O)c1c(-c2ccc(OC)c(OC)c2)c2cc(C)ccc2[nH]c1=O
25,182 to 184,COc1ccc(NS(=O)(=O)c2cc3cc(Br)ccc3oc2=O)cc1

row,melting point [°C],Structure (SMILES)
1,260 to 262,O=C(O)c1cc(-n2c(-c3ccccc3)cc3c2CCc2ccccc2-3)ccc1S
2,218 to 224,"CN(C)NC(=NS(=O)(=O)c1ccc(Cl)cc1)N1CC(c2ccccc2)C(c2ccc(Cl)cc2)=N1 (single isomer, unassigned; (-))"
3,70 to 72,COC(=O)C(Cc1ccccc1)Oc1c(Br)cc(-c2ccc(-c3nc(-c4ccc(C(F)(F)F)cc4)oc3C)cc2)cc1Br (centres undefined)
4,> 300,O=C(O)c1ccc(-c2nccs2)nc1
5,137 to 140,CN1CCC(C(C(=O)N2CCCC2)(c2ccccc2)c2ccccc2)C1 (centres undefined)
6,94,O=C(O)CCCCCCCCCCSSCCCCCCCCCCC(=O)O
7,88 to 89,O=C1c2ccccc2C(=O)N1CCCc1cccnc1
8,196 to 198,CCc1oc2ccc(C(C)C(=O)O)cc2c(=O)c1C (centres undefined)
9,253 to 254,CCCCC(CC)c1nc2cc(O)c(C#N)c(C)n2n1 (centres undefined)
10,168 to 171,CC(Cn1cc(Cl)c2ccccc21)N(O)C(N)=O (centres undefined)
11,90 to 91,Cc1cc(C)c(S(=O)(=O)ON)c(C)c1
12,234 to 235,O=C(CCn1c(=O)c(=O)[nH]c2cc(C(F)(F)F)c(-n3cccc3)cc21)NCc1ccccc1
13,88 to 90,CCOC(=O)c1ccn(-c2ccc(OCC)cc2)n1
14,185 to 189,CC(C)(C)c1cc(CCC(=O)NCCNc2c(Cl)c(Cl)nc(Cl)c2C#N)cc(C(C)(C)C)c1O
15,117 to 118,CCS(=O)(=O)CCc1ccc(C(=O)c2ccc(Cl)cc2)cc1
16,227,O=C(Nc1ccccn1)Nc1cnns1
17,61.7 to 63.6,COC(=O)C(=O)Nc1ccccc1C(C)(C)C
18,202 to 205,Cc1cc(-c2coc3c(-c4ccc(F)cc4)c(-c4ccc(S(C)(=O)=O)cc4)nn23)ccc1Cl
19,160 to 162,O=C(O)c1cncc(OCc2ccccc2)n1
20,113 to 114,O=C1CCN(Cc2ccc3c(c2)OCO3)CC1C(c1ccccc1)c1ccccc1 (centres undefined)
21,110 to 111,CCc1cccc(CC)c1N(CCCC(=O)O)C(=O)CCN(C(C)=O)c1c(C)cccc1C
22,63.5,Nc1ccc(OC(F)(F)F)cc1
23,220 to 222,CCS(=O)(=O)N(C(C)=O)c1cc(-n2nc3ccc(Cl)cn3c2=O)c(F)cc1C#N
24,101 to 102,COC(=O)C(C)Oc1cccc(C=Cc2ccc3ccc(Br)cc3n2)c1 (centres undefined)
25,210,CC1(C)CCCN(C(=O)[C@H]2C[C@H](S(=O)(=O)c3ccccc3)[C@@H](c3ccccc3F)N2)C1 (racemic)

# Continued, compound first:
row,Structure (SMILES),melting point [°C]
1,CNC(=O)Nc1snc(C)c1C(=O)OC,236 to 237
2,C=CCC1(C(=O)NCCCC)c2ccccc2-c2ccccc21,62.5 to 64
3,N#Cc1ncn2c1[C@@H]1CCN1C(=O)c1cc(Cl)ccc1-2,258 to 261
4,CCCOc1ccccc1-c1nc2c(CCC)nn(C)c2c(=O)[nH]1,115 to 116
5,N#CCOc1cc(Cl)c2c(=O)c(-c3ccccc3Cl)coc2c1,174 to 175
6,CCc1nc2c(cnn2CC)c(NC2CCOCC2)c1CNC(=O)c1cccc(C(=O)NCc2ccc(C)c(-c3cccc(CN4CC(C)NC(C)C4)c3)c2)c1 (centres undefined),109 to 112
7,NN(C(=O)c1ccc(Cl)c(S(N)(=O)=O)c1)c1ccc(C(=O)c2ccccc2)cc1[N+](=O)[O-],148
8,O=c1c(-c2n[nH]c3ccccc23)coc2ccccc12,159 to 160
9,COc1ccc(-c2cc(C(C)(O)C(F)(F)F)[nH]c2-c2ccc(OC)cc2)cc1 (centres undefined),111 to 112
10,CCCCNC(=O)N(C(=O)NCCCC)c1c(OC(=O)N(CC)CC)nc(C)c2cc(OC)c(OC)cc12,138 to 140
11,Cc1nc(C=NN(C)C)c2n1-c1ccc(Cl)cc1C(c1ccccc1Cl)=NC2,238 to 242
12,COc1cc2c(cc1OC)C(O)=C(c1cc(OCc3ccccc3)ccc1[N+](=O)[O-])C2=O,120
13,Cc1ccc(C(=S)c2cc(Cl)cc3c2NC(=O)C3)cc1,179 to 181
14,CC(=O)NC(C)(C)c1ccc(CN2CCN(c3ncccn3)CC2)cc1,137 to 138
15,COC(=O)NC12CC=CCC1CCc1ccc(OC)cc12 (centres undefined),120 to 122
16,Cc1sc(NC(=O)CCc2cnoc2-c2ccccc2)nc1-c1ccccc1,150 to 151
17,CC1=C(C(=O)O)C(c2ccccc2Cl)C(c2cccs2)=NN1 (centres undefined),188
18,CCN1C(=O)C2CCCN2Cc2ccccc21 (centres undefined),138 to 140
19,Cc1nc(C)c(C(C)(O)c2ccccn2)s1 (centres undefined),104 to 105
20,O=C(CNc1ccc(F)c(F)c1)Nc1c(Cl)ccc2nc(N3CC[C@@H](O)C3)ccc12,238 to 240
21,COc1ccnc(CCc2nc3cc(-c4ccc(S(=O)(=O)N(C)C)cc4)cnc3[nH]2)c1,217 to 218
22,CC(C)C(Oc1ccccc1)C(=O)NCCO[N+](=O)[O-] (centres undefined),76 to 77
23,CCOC(=O)C1=C(C)NC(=S)N(C(=O)OCC)C1c1ccccc1Cl (centres undefined),126 to 128
24,Cc1ccc(S(=O)(=O)OCC2COc3ccc(N)c(N)c3O2)cc1 (centres undefined),178 to 180
25,COc1cc(C2C3=C(COC3=O)Nc3c2cc(OC)c(OC)c3OC)ccc1O (centres undefined),290 to 291

row,Structure (SMILES),melting point [°C]
1,CCCC(c1ccc(C(=O)OC)cc1OCc1ccc(Cl)cc1Cl)n1ccnc1 (centres undefined),104
2,CC1CC2C3CCC4=CC(=O)C=CC4(C)C3=CCC2(C)C1C(=O)CN1CCN(c2cc(NCC(C)(C)C)nc(NC(C)(C)C)n2)CC1 (centres undefined),155 to 160
3,O=C1NCC(Cc2ccccc2O)O1 (centres undefined),93 to 95
4,COc1ccc2nc(C(=O)Nc3nnn(Cc4ccc(Cl)c(Cl)c4)c3C)sc2c1,176
5,CC12CC(=O)C3C(CCC4CC(O)CCC43C)C1CCC2C(=O)CCN1C(=O)c2ccccc2C1=O (centres undefined),187 to 189
6,Cc1noc(C)c1S(=O)(=O)n1c(=O)sc2ccccc21,140 to 144
7,CCCCc1nc(Cl)c(CO)n1Cc1ccc(OCc2ccccc2)cc1,115 to 116
8,O=C(Nc1cc2nc(-c3ccc(C(=O)C4CCCCC4)cc3)[nH]c2cn1)C1CCCCC1,235
9,CNC(=O)c1cc(F)c(Cl)cc1Oc1cccc(OC)c1C,127 to 128
10,O=C1Nc2ccc(Oc3cc(F)c(C(F)(F)F)c(Cl)c3)cc2C12CC2,168 to 170
11,O=C1c2ccccc2C(=O)N1CCCSc1ccccc1,83 to 85
12,CCOc1nc2c(C)sc(C(=O)OC)c2n1Cc1ccc(-c2ccccc2)c(-c2nc(=O)o[nH]2)c1,208 to 210
13,COC(=O)[C@H](Cc1ccccc1)NC(=O)N(Cc1ccccc1)NC(=O)OC(C)(C)C,71 to 73
14,N#Cc1c(CCl)[nH]c(=O)[nH]c1=O,229
15,Clc1ccc(-c2cc(C3CC3)n3ncc(I)c3n2)cc1,189 to 190
16,COc1cccc2c(NCc3ccccc3C)nc(Cl)nc12,279 to 281
17,O=C(O)Cc1sc(S)nc1-c1ccc(Cl)cc1,245 to 247
18,CCCCN1C(=O)NC(Cc2ccc(C)s2)C1=O (centres undefined),107
19,CCc1cccc2c3c([nH]c12)C(CC)(CC(C)O)OCC3 (centres undefined),103 to 104
20,CCOC(=O)C(C)OCc1cc2nc(Cl)ccc2n1S(=O)(=O)c1ccc2nc(NC(C)=O)sc2c1 (centres undefined),100 to 102
21,CC(C)c1c(Br)c(Br)c(-c2ccc(F)cc2)n1CC[C@H]1C[C@H](O)CC(=O)O1 (relative stereo),143
22,C#CCn1c(=O)sc2cc(F)c(-n3c(=O)cc(C)n(C)c3=O)cc21,180 to 181
23,NC(=O)c1c(Cl)c(-c2ccccc2)n2c1CN(S(=O)(=O)c1cccc(C(F)(F)F)c1)CC2,158 to 159
24,CCOC(=O)c1cn2c(n1)C=NC=C1C=CCC=C12,134 to 135
